# Assay results as given in US11345762B2, “Method for preparing liquid medium composition, and preparation device and kit therefor” (NISSAN CHEMICAL INDUSTRIES, LTD., priority 2015, dated 2022).
# Legend:
# [1] = system: Human pancreatic cancer cell line Panc02,03; experiment: Proliferation action on Panc02,03 cell stimulated by each growth factor (ATP, CellTiter-Glo); assay type: cell-based
# [2] = system: Human lung cancer cell line A549; experiment: A549 cell proliferation suppressive test with anticancer agents in low adhesion plate (ATP, CellTiter-Glo); assay type: cell-based
# Procedure: Deacylated gellan gum (KELCOGEL CG-LA, manufactured by Sansho Co., Ltd.) was suspended in ultra pure water (Milli-Q water) to 0.3% (w/v) or 0.75% (w/v), dissolved by stirring with heating at 90° C., and this aqueous solution was autoclave sterilized at 121° C. for 20 min. Using 0.3% solution, a medium composition was prepared by adding deacylated gellan gum (final concentration 0.015% (w/v)) to DMEM medium (manufactured by WAKO) containing 10% (v/v) fetal bovine serum. Fetal bovine serum was added at 10% (v/v) to a medium composition prepared in Example 7.
# Human lung cancer cell line A549 (manufactured by DS PHARMA BIOMEDICAL) was seeded in the above-mentioned medium composition added with deacylated gellan gum (conventional method) or the medium composition of Example 7 at 14800 cells/mL, and dispensed to the wells of a 96 well flat bottom ultra-low adhesive surface microplate (Corning Incorporated manufactured by, #3474) at 135 μL per […]. As a negative control, A549 cells were suspended in the above-mentioned medium free of deacylated gellan gum and dispensed. Each plate was cultured in a static state in a CO2 incubator (37° C., 5% CO2). On day 1 of culture, medium compositions (conventional method and the production method of the present invention) containing each anticancer agent at 10-fold concentration and deacylated gellan gum (final concentration 0.015% (w/v)), and a medium composition containing each anticancer agent alone at 10-fold concentration (non-addition method), 15 μL each, was added to a final concentration of 0.001 to 30 μM, and culture was continued for 7 days. As the anticancer agent, Trametinib (manufactured by Santa Cruz, MEK inhibitor) and MK-2206 (manufactured by Santa Cruz, Akt inhibitor) were used. ATP reagent (150 μL, CellTiter-Glo™ Luminescent Cell Viability Assay, manufactured by Promega) was added to the culture media on days 5 and 8 and suspended therein, stood for about 10 min at room temperature, and the luminescence intensity (RLU value) was measured by FlexStation3 (manufactured by Molecular Devices), from which the luminescence with the medium alone was subtracted to measure the number of viable cells.
# [3] = A549, day 4 of static culture, 0.001 μM, conventional method
# [4] = A549, day 4 of static culture, 0.001 μM, non-addition method
# [5] = A549, day 4 of static culture, 0.001 μM, production method of present invention
# [6] = A549, day 4 of static culture, 0.01 μM, conventional method
# [7] = A549, day 4 of static culture, 0.01 μM, non-addition method
# [8] = A549, day 4 of static culture, 0.01 μM, production method of present invention
# [9] = A549, day 7 of static culture, 0.001 μM, conventional method
# [10] = A549, day 7 of static culture, 0.001 μM, non-addition method
# [11] = A549, day 7 of static culture, 0.001 μM, production method of present invention
# [12] = A549, day 7 of static culture, 0.01 μM, conventional method
# [13] = A549, day 7 of static culture, 0.01 μM, non-addition method
# [14] = A549, day 7 of static culture, 0.01 μM, production method of present invention
# [15] = A549, day 4 of static culture, 0.03 μM, conventional method
# [16] = A549, day 4 of static culture, 0.03 μM, non-addition method
# [17] = A549, day 4 of static culture, 0.03 μM, production method of present invention
# [18] = A549, day 7 of static culture, 0.03 μM, conventional method
# [19] = A549, day 7 of static culture, 0.03 μM, non-addition method
# [20] = A549, day 7 of static culture, 0.03 μM, production method of present invention
compound,measurement,setting,value
"human IGF-1: growth factor, manufactured by PEPROTECH","% control of RLU value (ATP measurement, luminescence intensity)","[1]; Panc02,03, 10 ng/mL, medium composition of Example 13, on day 6 (head)",100 % Control
same,"% control of RLU value (ATP measurement, luminescence intensity)","[1]; Panc02,03, 10 ng/mL, monolayer culture group, culture conditions on day 6 (head)",101 % Control
same,"% control of RLU value (ATP measurement, luminescence intensity)","[1]; Panc02,03, 10 ng/mL, negative control group (medium free of deacylated gellan gum, low adhesion plate), on day 6 (head)",119 % Control
same,"% control of RLU value (ATP measurement, luminescence intensity)","[1]; Panc02,03, 100 ng/mL, medium composition of Example 13, on day 6 (head)",110 % Control
same,"% control of RLU value (ATP measurement, luminescence intensity)","[1]; Panc02,03, 100 ng/mL, monolayer culture group, culture conditions on day 6 (head)",98 % Control
same,"% control of RLU value (ATP measurement, luminescence intensity)","[1]; Panc02,03, 100 ng/mL, negative control group (medium free of deacylated gellan gum, low adhesion plate), on day 6 (head)",121 % Control
CC(=O)O[C@H]1C(=O)[C@@]2(C)[C@H]([C@H](OC(=O)c3ccccc3)[C@]3(O)C[C@H](OC(=O)[C@H](O)[C@@H](NC(=O)c4ccccc4)c4ccccc4)C(C)=C1C3(C)C)[C@]1(OC(C)=O)CO[C@@H]1C[C@@H]2O [Paclitaxel],"% control of RLU value (ATP measurement, luminescence intensity)",[2]; [3],98 % Control
same,"% control of RLU value (ATP measurement, luminescence intensity)",[2]; [4],112 % Control
same,"% control of RLU value (ATP measurement, luminescence intensity)",[2]; [5],91 % Control
same,"% control of RLU value (ATP measurement, luminescence intensity)",[2]; [6],31 % Control
same,"% control of RLU value (ATP measurement, luminescence intensity)",[2]; [7],57 % Control
same,"% control of RLU value (ATP measurement, luminescence intensity)",[2]; [8],32 % Control
same,"% control of RLU value (ATP measurement, luminescence intensity)",[2]; [9],90 % Control
same,"% control of RLU value (ATP measurement, luminescence intensity)",[2]; [10],116 % Control
same,"% control of RLU value (ATP measurement, luminescence intensity)",[2]; [11],84 % Control
same,"% control of RLU value (ATP measurement, luminescence intensity)",[2]; [12],12 % Control
same,"% control of RLU value (ATP measurement, luminescence intensity)",[2]; [13],49 % Control
same,"% control of RLU value (ATP measurement, luminescence intensity)",[2]; [14],12 % Control
NC1(c2ccc(-c3nc4ccn5c(=O)[nH]nc5c4cc3-c3ccccc3)cc2)CCC1 [MK-2206],"% control of RLU value (ATP measurement, luminescence intensity)",[2]; [15],100 % Control
same,"% control of RLU value (ATP measurement, luminescence intensity)",[2]; [16],108 % Control
same,"% control of RLU value (ATP measurement, luminescence intensity)",[2]; [17],85 % Control
same,"% control of RLU value (ATP measurement, luminescence intensity)","[2]; A549, day 4 of static culture, 0.1 μM, conventional method",91 % Control
same,"% control of RLU value (ATP measurement, luminescence intensity)","[2]; A549, day 4 of static culture, 0.1 μM, non-addition method",99 % Control
same,"% control of RLU value (ATP measurement, luminescence intensity)","[2]; A549, day 4 of static culture, 0.1 μM, production method of present invention",74 % Control
same,"% control of RLU value (ATP measurement, luminescence intensity)","[2]; A549, day 4 of static culture, 0.3 μM, conventional method",71 % Control
same,"% control of RLU value (ATP measurement, luminescence intensity)","[2]; A549, day 4 of static culture, 0.3 μM, non-addition method",93 % Control
same,"% control of RLU value (ATP measurement, luminescence intensity)","[2]; A549, day 4 of static culture, 0.3 μM, production method of present invention",60 % Control
same,"% control of RLU value (ATP measurement, luminescence intensity)","[2]; A549, day 4 of static culture, 1 μM, conventional method",50 % Control
same,"% control of RLU value (ATP measurement, luminescence intensity)","[2]; A549, day 4 of static culture, 1 μM, non-addition method",78 % Control
same,"% control of RLU value (ATP measurement, luminescence intensity)","[2]; A549, day 4 of static culture, 1 μM, production method of present invention",43 % Control
same,"% control of RLU value (ATP measurement, luminescence intensity)","[2]; A549, day 4 of static culture, 3 μM, conventional method",38 % Control
same,"% control of RLU value (ATP measurement, luminescence intensity)","[2]; A549, day 4 of static culture, 3 μM, non-addition method",62 % Control
same,"% control of RLU value (ATP measurement, luminescence intensity)","[2]; A549, day 4 of static culture, 3 μM, production method of present invention",33 % Control
same,"% control of RLU value (ATP measurement, luminescence intensity)",[2]; [18],92 % Control
same,"% control of RLU value (ATP measurement, luminescence intensity)",[2]; [19],124 % Control
same,"% control of RLU value (ATP measurement, luminescence intensity)",[2]; [20],80 % Control
same,"% control of RLU value (ATP measurement, luminescence intensity)","[2]; A549, day 7 of static culture, 0.1 μM, conventional method",83 % Control
same,"% control of RLU value (ATP measurement, luminescence intensity)","[2]; A549, day 7 of static culture, 0.1 μM, non-addition method",101 % Control
same,"% control of RLU value (ATP measurement, luminescence intensity)","[2]; A549, day 7 of static culture, 0.1 μM, production method of present invention",69 % Control
same,"% control of RLU value (ATP measurement, luminescence intensity)","[2]; A549, day 7 of static culture, 0.3 μM, conventional method",63 % Control
same,"% control of RLU value (ATP measurement, luminescence intensity)","[2]; A549, day 7 of static culture, 0.3 μM, non-addition method",103 % Control
same,"% control of RLU value (ATP measurement, luminescence intensity)","[2]; A549, day 7 of static culture, 0.3 μM, production method of present invention",54 % Control
same,"% control of RLU value (ATP measurement, luminescence intensity)","[2]; A549, day 7 of static culture, 1 μM, conventional method",38 % Control
same,"% control of RLU value (ATP measurement, luminescence intensity)","[2]; A549, day 7 of static culture, 1 μM, non-addition method",85 % Control
same,"% control of RLU value (ATP measurement, luminescence intensity)","[2]; A549, day 7 of static culture, 1 μM, production method of present invention",34 % Control
same,"% control of RLU value (ATP measurement, luminescence intensity)","[2]; A549, day 7 of static culture, 3 μM, conventional method",26 % Control
same,"% control of RLU value (ATP measurement, luminescence intensity)","[2]; A549, day 7 of static culture, 3 μM, non-addition method",76 % Control
same,"% control of RLU value (ATP measurement, luminescence intensity)","[2]; A549, day 7 of static culture, 3 μM, production method of present invention",21 % Control
same,efficacy on A549 cell proliferation in the medium composition of the present invention (in words),"[2]; A549, medium composition of the present invention",strong efficacy
CC(=O)Nc1cccc(-n2c(=O)n(C3CC3)c(=O)c3c(Nc4ccc(I)cc4F)n(C)c(=O)c(C)c32)c1 [Trametinib],"% control of RLU value (ATP measurement, luminescence intensity)",[2]; [3],85 % Control
same,"% control of RLU value (ATP measurement, luminescence intensity)",[2]; [4],76 % Control
same,"% control of RLU value (ATP measurement, luminescence intensity)",[2]; [5],82 % Control
same,"% control of RLU value (ATP measurement, luminescence intensity)","[2]; A549, day 4 of static culture, 0.003 μM, conventional method",65 % Control
same,"% control of RLU value (ATP measurement, luminescence intensity)","[2]; A549, day 4 of static culture, 0.003 μM, non-addition method",57 % Control
same,"% control of RLU value (ATP measurement, luminescence intensity)","[2]; A549, day 4 of static culture, 0.003 μM, production method of present invention",60 % Control
same,"% control of RLU value (ATP measurement, luminescence intensity)",[2]; [6],61 % Control
same,"% control of RLU value (ATP measurement, luminescence intensity)",[2]; [7],65 % Control
same,"% control of RLU value (ATP measurement, luminescence intensity)",[2]; [8],57 % Control
same,"% control of RLU value (ATP measurement, luminescence intensity)",[2]; [15],40 % Control
same,"% control of RLU value (ATP measurement, luminescence intensity)",[2]; [16],46 % Control
same,"% control of RLU value (ATP measurement, luminescence intensity)",[2]; [17],41 % Control
same,"% control of RLU value (ATP measurement, luminescence intensity)",[2]; [9],81 % Control
same,"% control of RLU value (ATP measurement, luminescence intensity)",[2]; [10],76 % Control
same,"% control of RLU value (ATP measurement, luminescence intensity)",[2]; [11],76 % Control
same,"% control of RLU value (ATP measurement, luminescence intensity)","[2]; A549, day 7 of static culture, 0.003 μM, conventional method",52 % Control
same,"% control of RLU value (ATP measurement, luminescence intensity)","[2]; A549, day 7 of static culture, 0.003 μM, non-addition method",48 % Control
same,"% control of RLU value (ATP measurement, luminescence intensity)","[2]; A549, day 7 of static culture, 0.003 μM, production method of present invention",48 % Control
same,"% control of RLU value (ATP measurement, luminescence intensity)",[2]; [12],48 % Control
same,"% control of RLU value (ATP measurement, luminescence intensity)",[2]; [13],56 % Control
same,"% control of RLU value (ATP measurement, luminescence intensity)",[2]; [14],45 % Control
same,"% control of RLU value (ATP measurement, luminescence intensity)",[2]; [18],25 % Control
same,"% control of RLU value (ATP measurement, luminescence intensity)",[2]; [19],39 % Control
same,"% control of RLU value (ATP measurement, luminescence intensity)",[2]; [20],24 % Control
